Experiment: Inhibition of electron transport protein complex 3 in glioma initiating cells assessed as increase in cell death at 50 uM after 48 hrs relative to control
Type: cell-based

O=CNc1cccc(C(=O)NC2CCCCCCCC2)c1O showed a fold change (FC) of over 1.2.
